Laboratory results from PubChem BioAssay (NCI).
Values joined by “and” are separate entries in the source; they are usually repeats but may differ in a detail not shown here. Identical values can stand only once.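 A five-concentration, 48-hour dose response in 96-well plates underlies each endpoint, interpolated linearly between surrounding concentrations. GI50 is the concentration that inhibits growth by half. TGI: total growth inhibition.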

Key:
Test in all cases: inhibition of tumour cell growth, NCI panel, 48 h
MDA-MB-435 = test system: MDA-MB-435
SK-MEL-28 melanoma = test system: SK-MEL-28 melanoma
DU-145 prostate = test system: DU-145 prostate
UACC-257 melanoma = test system: UACC-257 melanoma
EKVX NSCLC = test system: EKVX NSCLC
HCC-2998 colon = test system: HCC-2998 colon
MDA-MB-231 breast = test system: MDA-MB-231 breast
HL-60(TB) leukemia = test system: HL-60(TB) leukemia
MCF7 breast = test system: MCF7 breast
OVCAR-3 ovarian = test system: OVCAR-3 ovarian

| SMILES | GI50 (MDA-MB-435) | TGI (MDA-MB-435) | GI50 (SK-MEL-28 melanoma) | TGI (SK-MEL-28 melanoma) | GI50 (DU-145 prostate) | TGI (DU-145 prostate) | GI50 (UACC-257 melanoma) | TGI (UACC-257 melanoma) | GI50 (EKVX NSCLC) | TGI (EKVX NSCLC) | GI50 (HCC-2998 colon) | TGI (HCC-2998 colon) | GI50 (MDA-MB-231 breast) | TGI (MDA-MB-231 breast) | GI50 (HL-60(TB) leukemia) | TGI (HL-60(TB) leukemia) | GI50 (MCF7 breast) | TGI (MCF7 breast) | GI50 (OVCAR-3 ovarian) | TGI (OVCAR-3 ovarian) |
| --- | --- | --- | --- | --- | --- | --- | --- | --- | --- | --- | --- | --- | --- | --- | --- | --- | --- | --- | --- | --- |
| CCN(CC)CCOc1ccc2c(C)c(C(=O)OC)oc2c1C(=O)/C=C/c1ccc(OC)cc1 | 5.54 µM | 15.8 µM | 2.89 µM | 11.2 µM | 18.5 µM | 34.7 µM | 19.8 µM | 36.9 µM | 19.7 µM | 36.5 µM | 1.86 µM | 3.72 µM | 3.79 µM | 11.2 µM | 1.94 µM | 6.11 µM | 2.76 µM | > 22.7 µM | 4.36 µM | 12.2 µM |
| COC(=O)c1ccc2[nH]c(O)c(C(=Nc3ccc(N(C)C(=O)CN4CCN(C)CC4)cc3)c3ccccc3)c2c1 | 0.89 µM | 4.02 µM | 1.62 µM | 3.34 µM | 1.27 µM | 8.98 µM | 2.24 µM | 5 µM | 2.98 µM | 16.2 µM | 3.89 µM | 18.2 µM | 1.28 µM | 3.17 µM | 0.835 µM | 3.12 µM | 0.603 µM | 2.42 µM | 1.41 µM | 3.23 µM |
| COc1cc(N(CCC#N)CCC#N)ccc1/C(N=Nc1ccc(C(=O)O)cc1)=N/NC(=O)c1cc(Br)ccc1O | > 150 µg/mL | > 150 µg/mL | > 150 µg/mL | > 150 µg/mL | > 150 µg/mL | > 150 µg/mL | > 150 µg/mL | > 150 µg/mL | 137 µg/mL | > 150 µg/mL | 38.3 µg/mL | 81.7 µg/mL | 72.7 µg/mL | > 150 µg/mL | 55.4 µg/mL | > 150 µg/mL | 57.3 µg/mL | > 150 µg/mL | 65 µg/mL | > 150 µg/mL |
| Fc1ccc(-c2nn3c(COc4ccc(Cl)cc4)nnc3s2)cc1Oc1ccccc1 | 30.8 µM | > 71.1 µM | 37 µM | > 100 µM | 48.5 µM | > 100 µM | 41.6 µM | > 100 µM | 30.8 µM | > 74.2 µM | 30.6 µM | 92.8 µM | 16.4 µM | 35.8 µM | > 100 µM | > 100 µM | 21.9 µM | > 48.3 µM | 14.1 µM | 37.8 µM |
| O=NN(CCCl)C(=O)NC1CCCCC1 |  | 102 µM | 24.1 µM and 66.1 µM | 46.5 µM and 144 µM and 99.2 µM |  | 132 µM | 23.7 µM | 73.8 µM and 127 µM and 82.4 µM | 92.3 µM | 160 µM and 224 µM | 34.5 µM and 64.6 µM | 123 µM and 101 µM |  | 57 µM | 41.5 µM and 41 µM | 69.9 µM and > 80.6 µM and 83.8 µM |  | 117 µM | 13.5 µM | 34.5 µM and 142 µM |
| Cc1ccnc(Nc2ccc([N+](=O)[O-])c(NCCN3CCOCC3)n2)c1 | 0.00233 µM | 0.0068 µM |  | 30.3 µM | 0.00693 µM and 0.0284 µM |  |  |  | 0.0292 µM |  | 0.0187 µM and 0.0171 µM | 14.7 µM | 0.0213 µM and 0.0379 µM | 48.5 µM | 0.0144 µM | 0.0464 µM | 0.00334 µM | 20.5 µM | 0.00266 µM | 0.0078 µM |
| CC1(C)CC[C@]2(C(=O)O)CC[C@]3(C)C(=CC[C@@H]4[C@@]5(C)C/C(=C/c6ccco6)C(=O)C(C)(C)[C@@H]5CC[C@]43C)[C@@H]2C1 | 3.63 µM | 14.1 µM | 4.35 µM | 17.4 µM | 4.02 µM | 15.1 µM | 6.24 µM | 35.6 µM | 3.62 µM | 31.1 µM | 3.15 µM | 12.2 µM | 3.49 µM | 19.5 µM | 2.55 µM | 6.84 µM | 3.18 µM | 23.5 µM | 2.9 µM | 9.61 µM |
| CN(C)c1ccc(N=C2C=CC(=C(C#N)C#N)c3ccccc32)cc1 |  | 0.191 µM |  | 20.5 µM |  | 3.34 µM |  | 10.9 µM |  | 19.1 µM |  | 0.63 µM |  | 2.66 µM |  | 0.391 µM |  | 7.51 µM |  | 1.46 µM |
| C=C(Cl)[C@@](Cl)(CBr)CC[C@@H](Br)C(C)(C)Cl | 2.5 µM | 39.5 µM and 5.5 µM |  |  | 0.213 µM | 1.18 µM and 1.82 µM |  | 6.2 µM and 1.83 µM |  | 15.1 µM and 7 µM | 1.27 µM | 3.12 µM and 1.65 µM | 0.577 µM |  | 0.0686 µM | > 100 µM and 10.5 µM | 0.432 µM | 2.01 µM and 0.937 µM |  | 2.87 µM and 1.35 µM |
| CCCCC[C@@H](C/C=C/CCC(=O)NC/C(=C/Cl)[C@H]1C(=O)C(C)(C)C(=O)[C@@H](C)[C@@]1(C)O)OC | 18.7 µM | 36.3 µM | 18.1 µM | 33.8 µM | 16.8 µM | 31.8 µM | 18.4 µM | 34.3 µM | 13.5 µM | 30.5 µM |  |  | 16 µM | 32.3 µM | 19.1 µM | 40.6 µM | 19.2 µM | 38.8 µM | 16.3 µM | 30.5 µM |
| COc1cc(/C=C\c2cc(OC)c(OC)c(OC)c2)cc(NS(=O)(=O)c2ccc(Cl)cc2)c1OC | 0.188 µM | 0.44 µM | 1.14 µM | > 100 µM | 0.507 µM | > 100 µM | 12.5 µM | > 100 µM |  |  | 1.98 µM | > 100 µM | 1.16 µM | > 100 µM | 0.249 µM | 0.694 µM | 0.375 µM | > 100 µM | 0.364 µM | > 100 µM |
| O=C(OC[C@@H]1CO1)c1cccc2c(=O)c3ccccc3[nH]c12 | 0.281 µM | 1.24 µM | 0.396 µM | 2.07 µM | 0.335 µM | 1.29 µM | 0.517 µM | 4.31 µM | 0.856 µM | 3.72 µM | 0.312 µM | 1.25 µM | 0.393 µM | 2.29 µM |  |  | 0.0469 µM | 0.642 µM | 0.276 µM | 1.14 µM |
| COC(=O)[C@H](Cc1cn(C)cn1)NC(=O)[C@@H](NC(=O)Nc1cc(C(F)(F)F)cc(C(F)(F)F)c1)C(C)C | 6.11 µM | > 10 µM | 2.05 µM | 4.99 µM | > 10 µM | > 10 µM | > 10 µM | > 10 µM |  |  | 1.81 µM | 3.46 µM | 1.71 µM | 4.42 µM | > 10 µM | > 10 µM | 1.98 µM | 4.67 µM | 1.86 µM | 3.48 µM |
| COc1ccc(/C=C/C(C)=N/OCC(=O)Nc2ccc(Cl)cc2)cc1 | 2.44 µM | 9.76 µM | 3.17 µM | 31.6 µM | 4.11 µM | 78.6 µM | 3.4 µM | 22.2 µM |  |  | 3.75 µM | 15.8 µM | 1.76 µM | 8.99 µM | 2.55 µM | 10.5 µM | 2.3 µM | 18.8 µM | 3.03 µM | 15 µM |
| O=C(Oc1ccc2c(c1)CN(Cc1ccccc1)CO2)c1ccccc1 |  | 54.2 µM |  | 41.2 µM |  | 36.7 µM |  | 29.5 µM |  | 33.4 µM |  | 28.2 µM |  | 36 µM |  |  |  | 32.7 µM |  | 29.7 µM |
| OCC#Cc1ccccc1C#Cc1ccc(C#Cc2ccccc2)cc1 | 21 µM | 49.5 µM | 38.3 µM | > 100 µM | 16.7 µM | 34.4 µM | 27.6 µM | 69.8 µM | 25.2 µM | 77.9 µM |  |  | 20 µM | 37.5 µM | 0.489 µM | > 100 µM | 15.9 µM | 38.3 µM | 27.3 µM | 48.7 µM |
| C=C1CC/C=C(\C)CC[C@H](C(=C)C)[C@@H](O)/C=C(/CO)CCC1O (some centres undefined) | 40.5 µM | > 100 µM | > 100 µM | > 100 µM | 93.2 µM | > 100 µM | > 100 µM | > 100 µM | 60.4 µM | > 100 µM | > 100 µM | > 100 µM | > 100 µM | > 100 µM |  |  | 21.4 µM | > 100 µM | 40 µM | > 100 µM |
| COC(=O)[C@]1(C)CCC[C@]2(C)[C@@H]1CCC13C[C@@H](C=CO1)[C@@H](C)CC32O (some centres undefined) | 23.9 µM | > 100 µM | > 100 µM | > 100 µM | 19.9 µM | 43.5 µM | 70 µM | > 100 µM | 2.07 µM | > 100 µM |  |  | 65.9 µM | > 100 µM | 45.4 µM | > 100 µM | 25.7 µM | > 100 µM | 17.8 µM | 46.8 µM |
| COc1ccc(-c2cc(-c3ccccc3)nc(NCCNc3ccnc4cc(Cl)ccc34)n2)cc1 | 1.47 µM | 3.01 µM | 1.73 µM | 3.35 µM | 1.77 µM | 3.28 µM | 1.92 µM | 3.93 µM | 1.79 µM | 3.59 µM |  |  | 1.81 µM | 3.49 µM | 1.72 µM | 3.62 µM | 1.53 µM | 3.42 µM | 1.82 µM | 3.39 µM |
| Oc1ccccc1C=Nc1nc(OCc2ccccc2)nc2[nH]ncc12 | 20.7 µM | 44.8 µM | 22.2 µM | 43.1 µM | 33.9 µM | > 100 µM | 34.2 µM | > 100 µM | 30.1 µM | 97.8 µM | 20.2 µM | 38.1 µM | 15 µM | 37.3 µM |  |  | 15.5 µM | 35.2 µM | 17.8 µM | 49.1 µM |
